Our source for the IC50 values is patent publication US8304447B2, “2-acylaminopropoanol-type glucosylceramide synthase inhibitors” (Genzyme Corporation, priority 2007, dated 2012).

The subject of this experiment is GM3. As to the kind of experiment: GM3 Elisa assay. The conditions noted are these: Table 3 (IC 50 Values); B16-FO cells; read-out: IC50_uM_Mean. In kind it is cell-based. The essentials:
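Murine B16-FO melanoma cells attached 6 h on collagen, then exposed to compounds for 2 days at 37 °C. After formaldehyde fixation, cell-surface GM3 (NeuAc) was detected by anti-GM3 IgM and peroxidase anti-mouse IgM with Quantablu fluorescence (Ex 325/Em 420).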
For the compound `COc1ccc(C(=O)CCCCCC(=O)N[C@H](CNCC(C)(C)C)[C@H](O)c2ccc3c(c2)OCCO3)cc1` [Compound 466], the IC50 was 3000 to 10000 nM.
Consider `CCCNC[C@@H](NC(=O)CCCCCC(=O)c1ccc(OC)cc1)C(O)c1ccc2c(c1)OCCO2` (some centres unmarked) [Compound 467], for which the IC50 was 100 to 1000 nM.
In the case of `COc1ccc(C(=O)CCCCCC(=O)N[C@@H](CN(C)C(C)C)[C@@H](O)c2ccc3c(c2)OCCO3)cc1` [Compound 468], the IC50 is at most 100 nM.
Consider `COc1ccc(C(=O)CCCCCC(=O)N[C@@H](CN(C)C)[C@@H](O)c2ccc3c(c2)OCCO3)cc1` [Compound 469], for which the IC50 was in the range of 100 to 1000 nM.
As for `CCCN(C)C[C@H](NC(=O)CCCCCC(=O)c1ccc(OC)cc1)[C@@H](O)c1ccc2c(c1)OCCO2` [Compound 470], the figure is 100 to 1000 nM.
Regarding `COc1ccc(C(=O)CCCCCC(=O)N[C@H](CN2CCCC2)C(O)C2CCCCC2)cc1` (some centres unmarked) [Compound 471], the IC50 lay within 1000 to 3000 nM.
As for `O=C(CCCOc1ccc(F)cc1)N[C@@H](CN1C2CCC1CC2)C(O)c1ccc2c(c1)OCCO2` (some centres unmarked) [Compound 472], the figure is 100 to 1000 nM; as for `O=C(CCOc1ccc(F)cc1)N[C@H](CN1C2CCC1CC2)[C@H](O)c1ccc2c(c1)OCCO2` [Compound 473], at most 100 nM.
For `O=C(CCCC(=O)c1ccc(F)cc1)N[C@H](CN1C2CCC1CC2)[C@H](O)c1ccc2c(c1)OCCO2` [Compound 474], the IC50 lay within 100 to 1000 nM.
As to `O=C(CCCCCC(=O)c1ccc(F)cc1)N[C@H](CN1C2CCC1CC2)[C@H](O)c1ccc2c(c1)OCCO2` [Compound 475], the IC50 was at most 100 nM.
With `O=C(CCCCC(=O)c1ccc(F)cc1)N[C@H](CN1C2CCC1CC2)[C@H](O)c1ccc2c(c1)OCCO2` [Compound 476], the IC50 fell in the range of 100 to 1000 nM.
Consider `COc1ccc(C(=O)CCCCCC(=O)N[C@@H](CO)C(O)c2ccc3c(c2)OCCO3)cc1` (some centres unmarked) [Compound 477], for which the IC50 fell in the range of 3000 to 10000 nM.
In the case of `CCCCCCCC(=O)N[C@H](CN1CCCC1)[C@H](O)c1ccc(CCOC)cc1` [Compound 478], the IC50 was in the range of 100 to 1000 nM.
The figure for `COCCc1ccc([C@@H](O)[C@@H](CN2CCCC2)NC(=O)CCCCCC(=O)c2ccc(OC)cc2)cc1` [Compound 479] is at most 100 nM.
Consider `COc1ccc(CCNC(=O)N[C@H](CN2CCCC2)[C@H](O)c2ccc3c(c2)OCCO3)cc1` [Compound 480], for which the IC50 was 1000 to 3000 nM.
For `O=C(CCCCCNC(=O)C(F)(F)F)N[C@H](CN1CCCC1)[C@H](O)c1ccc2c(c1)OCCO2` [Compound 481], the IC50 fell in the range of 3000 to 10000 nM.
For the compound `COc1ccc([C@@H](O)[C@@H](CO)NC(=O)OCc2ccccc2)cc1F` [Compound 482], the IC50 is 3000 to 10000 nM.
As for `O=C(N[C@H](CO)[C@H](O)c1ccc(C(F)(F)F)cc1)OCc1ccccc1` [Compound 483], the IC50 was in the range of 3000 to 10000 nM.
Consider `COc1ccc(C(=O)CCCCCC(=O)N[C@H](CN2CCCC2)[C@H](O)c2ccc(C(F)(F)F)cc2)cc1` [Compound 484], for which the IC50 fell in the range of 1000 to 3000 nM.
Take `O=C(CCCN1Cc2ccccc2C1=O)N[C@H](CN1CCCC1)[C@H](O)c1ccc2c(c1)OCCO2` [Compound 485]: the IC50 lay in the range of 3000 to 10000 nM.
For `O=C(CCCCCN1Cc2ccccc2C1=O)N[C@H](CN1CCCC1)[C@H](O)c1ccc2c(c1)OCCO2` [Compound 486], the IC50 was 1000 to 3000 nM.
With `O=C(Cc1ccc(OC(F)(F)F)cc1)N[C@H](CN1CCCC1)[C@H](O)c1ccc(C(F)(F)F)cc1` [Compound 487], the IC50 lay in the range of 3000 to 10000 nM.
In the case of `CCCCCCCC(=O)N[C@H](CN1CCCC1)[C@H](O)c1ccc(C(F)(F)F)cc1` [Compound 488], the IC50 is 1000 to 3000 nM.
The figure for `COc1ccc(OCCC(=O)N[C@H](CN2CCCC2)[C@H](O)c2ccc(C(F)(F)F)cc2)cc1` [Compound 489] is 3000 to 10000 nM; for `COc1ccc(C(=O)CCCC(=O)N[C@H](CN2CCCC2)[C@H](O)c2ccc(C(F)(F)F)cc2)cc1` [Compound 490] it is 3000 to 10000 nM; for `COc1ccc(C(=O)CCCCC(=O)N[C@H](CN2CCCC2)[C@H](O)c2ccc(C(F)(F)F)cc2)cc1` [Compound 491] it is 1000 to 3000 nM.
Regarding `O=C(Cc1ccc(OC(F)(F)F)cc1)NC(CN1CCCC1)[C@H](O)c1ccc(Cl)s1` (some centres unmarked) [Compound 492], the IC50 was in the range of 3000 to 10000 nM.
As for `COc1ccc(OCCC(=O)N[C@H](CN2CCCC2)[C@H](O)c2ccc(Cl)s2)cc1` [Compound 493], the IC50 was in the range of 1000 to 3000 nM.
For the compound `COc1ccc(C(=O)CCCCC(=O)N[C@H](CN2CCCC2)[C@H](O)c2ccc(Cl)s2)cc1` [Compound 494], the IC50 was in the range of 100 to 1000 nM.
As to `COc1ccc(C(=O)CCCCC(=O)N[C@H](CN2CC[C@H](O)C2)[C@H](O)c2ccc(OCCCCF)cc2)cc1` [Compound 495], the IC50 was at most 100 nM.
Regarding `Cc1ccc(OCCC(=O)N[C@H](CN2CC[C@H](O)C2)[C@H](O)c2ccc(OCCCCF)cc2)cc1` [Compound 496], the IC50 is at most 100 nM.
As for `COc1ccc(C(=O)CCCCCC(=O)N[C@H](CN2CC[C@H](O)C2)[C@H](O)c2ccc(OCCCCF)cc2)cc1` [Compound 497], the figure is at most 100 nM; as for `COc1ccc(CNC(=O)N[C@H](CN2CC[C@H](O)C2)[C@H](O)c2ccc(OCCCCF)cc2)cc1` [Compound 498], at most 100 nM.
As for `COCCCCCCCC(=O)N[C@H](CN1CC[C@H](O)C1)[C@H](O)c1ccc(OCCCCF)cc1` [Compound 499], the figure is at most 100 nM; as for `COc1ccc(C(=O)CCCC(=O)N[C@H](CN2CC[C@H](O)C2)[C@H](O)c2ccc(OCCCCF)cc2)cc1` [Compound 500], at most 100 nM; as for `COc1ccc(OCCCC(=O)N[C@H](CN2CC[C@H](O)C2)[C@H](O)c2ccc(OCCCCF)cc2)cc1` [Compound 501], at most 100 nM.
With `COc1ccc(OCCC(=O)N[C@H](CN2CC[C@H](O)C2)[C@H](O)c2ccc(OCCCCF)cc2)cc1` [Compound 502], the IC50 was at most 100 nM.
As for `O=C(NCc1ccc(Cl)cc1)N[C@H](CN1CC[C@H](O)C1)[C@H](O)c1ccc(OCCCCF)cc1` [Compound 503], the IC50 is at most 100 nM.
The figure for `CCCCCCCC(=O)N[C@H](CN1CC[C@@H](F)C1)[C@H](O)c1ccc2c(c1)OCCO2` [Compound 504] is 100 to 1000 nM.
Consider `COc1ccc(OCCC(=O)N[C@H](CN2CC[C@H](c3ccccc3)C2)[C@H](O)c2ccc3c(c2)OCCO3)cc1` [Compound 505], for which the IC50 was in the range of 3000 to 10000 nM.
Take `CCCCCCCC(=O)N[C@H](CN1CC[C@H](c2ccccc2)C1)[C@H](O)c1ccc2c(c1)OCCO2` [Compound 506]: the IC50 was in the range of 3000 to 10000 nM.
Consider `CCCCCCCC(=O)N[C@H](Cn1ccnc1)[C@H](O)c1ccc2c(c1)OCCO2` [Compound 507], for which the IC50 is 100 to 1000 nM.
As for `COc1ccc(OCCC(=O)N[C@H](Cn2ccnc2)[C@H](O)c2ccc3c(c2)OCCO3)cc1` [Compound 508], the IC50 lay in the range of 3000 to 10000 nM.
`COc1ccc(OCCC(=O)N[C@H](CN2CC[C@@H](F)C2)[C@H](O)c2ccc3c(c2)OCCO3)cc1` [Compound 509]: the IC50 lay within 100 to 1000 nM.
The figure for `CCCCCCCC(=O)N[C@H](CN1CC[C@H](F)C1)[C@H](O)c1ccc2c(c1)OCCO2` [Compound 510] is 3000 to 10000 nM; for `COc1ccc(OCCC(=O)N[C@H](CN2CC[C@H](F)C2)[C@H](O)c2ccc3c(c2)OCCO3)cc1` [Compound 511] it is 3000 to 10000 nM; for `CCCCCCCC(=O)N[C@H](CN1CC[C@@H](O)C1)[C@H](O)c1ccc2c(c1)OCCO2` [Compound 512] it is 1000 to 3000 nM.
As to `COc1ccc(OCCC(=O)N[C@H](CN2CC[C@@H](O)C2)[C@H](O)c2ccc3c(c2)OCCO3)cc1` [Compound 513], the IC50 was 3000 to 10000 nM.
Turning to `COc1ccc(OCCC(=O)N[C@H](CN2CC[C@H](O)C2)[C@H](O)c2ccc3c(c2)OCCO3)cc1` [Compound 514], the IC50 fell in the range of 100 to 1000 nM.
For the compound `CCCCCCCC(=O)N[C@H](CN1CC[C@H](O)C1)[C@H](O)c1ccc2c(c1)OCCO2` [Compound 515], the IC50 was at most 100 nM.
As to `COc1ccc(OCCC(=O)N[C@H](CN2CC3CC3C2)[C@H](O)c2ccc3c(c2)OCCO3)cc1` (some centres unmarked) [Compound 516], the IC50 is 100 to 1000 nM.
For `CCCCCCCC(=O)N[C@H](CN1CC2CC2C1)[C@H](O)c1ccc2c(c1)OCCO2` (some centres unmarked) [Compound 517], the IC50 was in the range of 100 to 1000 nM.
Turning to `COc1ccc(C(=O)CCCCCC(=O)N[C@H](CN2CC[C@@H](O)C2)[C@H](O)c2ccc3c(c2)OCCO3)cc1` [Compound 518], the IC50 fell in the range of 100 to 1000 nM.
Take `COc1ccc(OCCC(=O)N[C@H](CN2CCC(C)(C)C2)[C@H](O)c2ccc3c(c2)OCCO3)cc1` [Compound 519]: the IC50 was in the range of 3000 to 10000 nM.
In the case of `COc1ccc(C(=O)CCCCCC(=O)N[C@H](CN2CCC(C)(C)C2)[C@H](O)c2ccc3c(c2)OCCO3)cc1` [Compound 520], the IC50 was 1000 to 3000 nM.
With `CCCCCCCC(=O)N[C@H](CN1CCC(C)(C)C1)[C@H](O)c1ccc2c(c1)OCCO2` [Compound 521], the IC50 lay within 3000 to 10000 nM.
As for `COc1ccc(C(=O)CCCCCC(=O)N[C@H](CN2C3CCC2CC3)[C@H](O)c2ccc3c(c2)OCCO3)cc1` [Compound 522], the IC50 is at most 100 nM.
For `COc1ccc(OCCC(=O)N[C@H](CN2C3CCC2CC3)[C@H](O)c2ccc3c(c2)OCCO3)cc1` [Compound 523], the IC50 lay in the range of 100 to 1000 nM.
For the compound `CCCCCCCC(=O)N[C@H](CN1C2CCC1CC2)[C@H](O)c1ccc2c(c1)OCCO2` [Compound 524], the IC50 lay in the range of 100 to 1000 nM.
On to `COc1ccc(C(=O)CCCCCC(=O)N[C@H](CN2CCC[C@@H]2C)[C@@H](O)c2ccc3c(c2)OCCO3)cc1` [Compound 525], for which the IC50 was at most 100 nM.
Take `COc1ccc(OCCC(=O)N[C@H](CN2CCC[C@@H]2C)[C@@H](O)c2ccc3c(c2)OCCO3)cc1` [Compound 526]: the IC50 lay in the range of 100 to 1000 nM.
On to `CCCCCCCC(=O)N[C@H](CN1CCC[C@@H]1C)[C@@H](O)c1ccc2c(c1)OCCO2` [Compound 527], for which the IC50 lay within 1000 to 3000 nM.
